Test results taken from US10155788B2, “Cationic steroidal antimicrobial prodrug compositions and uses thereof” (BRIGHAM YOUNG UNIVERSITY, priority 2014, dated 2018).
≈ marks a conversion by molar mass, not a printed value.

What was measured:
[1] = tested on: ATCC 25923 strain of staphylococcus aureus; assay: Minimum inhibitory concentration against staph A; type: cell-based; settings: ATCC25923; staphylococcus aureus ATCC 25923
Protocol: The pharmacological analysis of the methane sulfonate prodrug of CSA-13 (CSA-13 MS) versus the free base CSA-13 compound was assessed for their antimicrobial properties against the ATCC 25923 strain of staphylococcus aureus (hereinafter “staph A”).

[2] = tested on: C57BL/6 female mice; assay: Maximum Tolerated Dose study of CSA-192 MS, intravenous, in mice; type: in vivo; settings: for mortality and abnormal clinical signs: 7 days observation
Text: The objective of this study was to determine the Maximum Tolerated Dose (MTD) of CSA-192 MS following intravenous (i.v.) administration at various dose levels in C57BL/6 female mice. FIG. 2 is a graph showing CSA-192 MS Kinetics.
Immunocompetent C57BL/6 female mice weighing 16 to 20 g were obtained from the University of Sevilla's facility. The number of animals that were selected for use in this study was considered to be the minimum requirement to meet rational scientific endpoints.
One the first day of the study, mice were subjected to randomization and allocated to different groups, so that each group (G) contains 6 females. Each cage housed 6 mice. Each cage was identified by a cage card, with details like study item, species, strain, sex, number of animals, date, dose, and investigator name.
The study was conducted at four different dose levels. On day 1 of treatment all the animals in G1, G2, G3, and G4 groups were administered with CSA-192 MS at 4, 8, 16, and 32 mg/kg based on their body weight. Dose volumes were maintained at 0.2 mL for G1, G2, and G3. The dose volume for G4 was 0.32 mL.
More particularly, the test item was administered by intravenous route, at dose concentration of 4 mg/kg body weight for G1, 8 mg/kg body weight for G2, 16 mg/kg body weight for G3, and 32 mg/kg body weight G4 groups, respectively. Dose volumes were maintained at 0.2 mL for G1, G2, and G3. For group G4 the dose volume was 0.32 mL.
The first day they were checked immediately after dose administration, at 30 min, 1 hour, and every 4 hours, the following days twice a day. Mice were sacrificed on day 7 of the study period.

CCCCCCCCNCCC[C@@H](C)[C@H]1CC[C@H]2[C@@H]3[C@H](OCCCN)C[C@@H]4C[C@H](OCCCN)CC[C@]4(C)[C@H]3C[C@H](OCCCN)[C@]12C [CSA-13]
MIC [1]: 1.6 µg/mL (≈ 2.36 µM)

CCCCCCCCNC(=O)CC[C@@H](C)[C@H]1CC[C@H]2[C@@H]3[C@H](OCCCN)C[C@@H]4C[C@H](OCCCN)CC[C@]4(C)[C@H]3C[C@H](OCCCN)[C@]12C [CSA-192 MS]
mortality and abnormal clinical signs ([2]; 4.0 mg/kg body weight (G1), intravenously): no incidences of mortality and abnormal clinical signs | mortality and abnormal clinical signs ([2]; 8.0 mg/kg body weight (G2), intravenously): no incidences of mortality and abnormal clinical signs | clinical signs ([2]; 16.0 mg/kg body weight (G3), intravenously, immediately after administration, disappeared after an hour, rest of G3 without signs): one animal showed signs of somnolence | mortality and abnormal clinical signs ([2]; 32.0 mg/kg body weight (G4), intravenously): no incidences of mortality and abnormal clinical signs | Clinical observations/No of animals per group ([2]; G1 4 mg/Kg i.v., Day 1): 0/6 | No of animals found dead/No. of animals per group ([2]; G1 4 mg/Kg i.v., Day 1): 0/6 | Clinical observations/No of animals per group ([2]; G1 4 mg/Kg i.v., Day 2): 0/6 | No of animals found dead/No. of animals per group ([2]; G1 4 mg/Kg i.v., Day 2): 0/6 | Clinical observations/No of animals per group ([2]; G1 4 mg/Kg i.v., Day 3): 0/6 | No of animals found dead/No. of animals per group ([2]; G1 4 mg/Kg i.v., Day 3): 0/6 | Clinical observations/No of animals per group ([2]; G1 4 mg/Kg i.v., Day 4): 0/6 | No of animals found dead/No. of animals per group ([2]; G1 4 mg/Kg i.v., Day 4): 0/6 | Clinical observations/No of animals per group ([2]; G1 4 mg/Kg i.v., Day 5): 0/6 | No of animals found dead/No. of animals per group ([2]; G1 4 mg/Kg i.v., Day 5): 0/6 | Clinical observations/No of animals per group ([2]; G1 4 mg/Kg i.v., Day 6): 0/6 | No of animals found dead/No. of animals per group ([2]; G1 4 mg/Kg i.v., Day 6): 0/6 | Clinical observations/No of animals per group ([2]; G1 4 mg/Kg i.v., Day 7): 0/6 | No of animals found dead/No. of animals per group ([2]; G1 4 mg/Kg i.v., Day 7): 0/6 | Clinical observations/No of animals per group ([2]; G2 8 mg/kg i.v., Day 1): 0/6 | No of animals found dead/No. of animals per group ([2]; G2 8 mg/kg i.v., Day 1): 0/6 | Clinical observations/No of animals per group ([2]; G2 8 mg/kg i.v., Day 2): 0/6 | No of animals found dead/No. of animals per group ([2]; G2 8 mg/kg i.v., Day 2): 0/6 | Clinical observations/No of animals per group ([2]; G2 8 mg/kg i.v., Day 3): 0/6 | No of animals found dead/No. of animals per group ([2]; G2 8 mg/kg i.v., Day 3): 0/6 | Clinical observations/No of animals per group ([2]; G2 8 mg/kg i.v., Day 4): 0/6 | No of animals found dead/No. of animals per group ([2]; G2 8 mg/kg i.v., Day 4): 0/6 | Clinical observations/No of animals per group ([2]; G2 8 mg/kg i.v., Day 5): 0/6 | No of animals found dead/No. of animals per group ([2]; G2 8 mg/kg i.v., Day 5): 0/6 | Clinical observations/No of animals per group ([2]; G2 8 mg/kg i.v., Day 6): 0/6 | No of animals found dead/No. of animals per group ([2]; G2 8 mg/kg i.v., Day 6): 0/6 | Clinical observations/No of animals per group ([2]; G2 8 mg/kg i.v., Day 7): 0/6 | No of animals found dead/No. of animals per group ([2]; G2 8 mg/kg i.v., Day 7): 0/6 | Clinical observations/No of animals per group ([2]; G3 16 mg/kg i.v., Day 1): 1/6 | No of animals found dead/No. of animals per group ([2]; G3 16 mg/kg i.v., Day 1): 0/6 | Clinical observations/No of animals per group ([2]; G3 16 mg/kg i.v., Day 2): 0/6 | No of animals found dead/No. of animals per group ([2]; G3 16 mg/kg i.v., Day 2): 0/6 | Clinical observations/No of animals per group ([2]; G3 16 mg/kg i.v., Day 3): 0/6 | No of animals found dead/No. of animals per group ([2]; G3 16 mg/kg i.v., Day 3): 0/6 | Clinical observations/No of animals per group ([2]; G3 16 mg/kg i.v., Day 4): 0/6 | No of animals found dead/No. of animals per group ([2]; G3 16 mg/kg i.v., Day 4): 0/6 | Clinical observations/No of animals per group ([2]; G3 16 mg/kg i.v., Day 5): 0/6 | No of animals found dead/No. of animals per group ([2]; G3 16 mg/kg i.v., Day 5): 0/6 | Clinical observations/No of animals per group ([2]; G3 16 mg/kg i.v., Day 6): 0/6 | No of animals found dead/No. of animals per group ([2]; G3 16 mg/kg i.v., Day 6): 0/6 | Clinical observations/No of animals per group ([2]; G3 16 mg/kg i.v., Day 7): 0/6 | No of animals found dead/No. of animals per group ([2]; G3 16 mg/kg i.v., Day 7): 0/6 | Clinical observations/No of animals per group ([2]; G4 32 mg/kg i.v., Day 1): 0/6 | No of animals found dead/No. of animals per group ([2]; G4 32 mg/kg i.v., Day 1): 0/6 | Clinical observations/No of animals per group ([2]; G4 32 mg/kg i.v., Day 2): 0/6 | No of animals found dead/No. of animals per group ([2]; G4 32 mg/kg i.v., Day 2): 0/6 | Clinical observations/No of animals per group ([2]; G4 32 mg/kg i.v., Day 3): 0/6 | No of animals found dead/No. of animals per group ([2]; G4 32 mg/kg i.v., Day 3): 0/6 | Clinical observations/No of animals per group ([2]; G4 32 mg/kg i.v., Day 4): 0/6 | No of animals found dead/No. of animals per group ([2]; G4 32 mg/kg i.v., Day 4): 0/6 | Clinical observations/No of animals per group ([2]; G4 32 mg/kg i.v., Day 5): 0/6 | No of animals found dead/No. of animals per group ([2]; G4 32 mg/kg i.v., Day 5): 0/6 | Clinical observations/No of animals per group ([2]; G4 32 mg/kg i.v., Day 6): 0/6 | No of animals found dead/No. of animals per group ([2]; G4 32 mg/kg i.v., Day 6): 0/6 | Clinical observations/No of animals per group ([2]; G4 32 mg/kg i.v., Day 7): 0/6 | No of animals found dead/No. of animals per group ([2]; G4 32 mg/kg i.v., Day 7): 0/6 | treatment related change in body weight ([2]; all groups (4, 8, 16, 32 mg/kg i.v.)): No treatment related change in body weight was observed | mortality ([2]; any of the groups (4, 8, 16, 32 mg/kg i.v.), 7 days): no mortality was observed
